26 compounds from patent publication US20240425491A1, “HETEROARYL COMPOUNDS USEFUL IN THE TREATMENT OF COGNITIVE DISORDERS” (University College Cardiff Consultants Limited, priority 2021, published 2024) can be followed below.

One may read the Ki as the dissociation constant of the complex between target and ligand, obtained from inhibition or displacement.

The target in assay [1] is T1, human recombinant GABAAR containing α5β3γ2 subunits (benzodiazepine site) (Homo sapiens, UniProt P18507+P31644).
T1 construct: expressed in transfected cells; host or cells: mouse L(tk−) cells, dexamethasone-inducible vector pMSGneo
Put plainly: In vitro radioligand binding assay (α5-GABAAR Ki). Particulars: inhibition of [3H]Ro15-1788 binding, membranes of L(tk−) cells expressing human α5β3γ2; read-out: α5-GABAAR Ki. Put shortly: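 Membranes from mouse L(tk^−) cells stably expressing human α5β3γ2 GABAAR incubated 1 h at 4° C with 4 nM [^3H]Ro15-1788 and test compound; nonspecific binding with 1 μM TP003. Filter-bound radioactivity counted; Ki from IC50 by Cheng-Prusoff using measured Kd.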

The target of assay [2] is T2, human α5β3γ2 GABAARs in mouse L(tk−) cells (Homo sapiens, UniProt P18507+P31644).
T2 construct: expressed in transfected cells; host or cells: mouse L(tk−) cells, dexamethasone-inducible vector pMSGneo
Put plainly: In vitro electrophysiological recording assay (α5-GABAAR relative efficacy), QPatch. In kind it is cell-based. Particulars: GABA EC10-20. Put shortly:
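Whole-cell QPatch recordings at 20-22° C, −65 mV holding, in dexamethasone-induced (1 μM, 24 h) L(tk−) cells. Compound pre-applied ≥1 min, then co-applied with GABA EC10-20; percentage change in leak-corrected peak current, taken at ≥100× Ki, normalised to DMCM efficacy; 0.1% DMSO final.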
In general terms: The patch-clamp technique gives a direct electrical read-out from membranes.

Molecules are shown by their SMILES.

T2 sequence (P31644 32-462): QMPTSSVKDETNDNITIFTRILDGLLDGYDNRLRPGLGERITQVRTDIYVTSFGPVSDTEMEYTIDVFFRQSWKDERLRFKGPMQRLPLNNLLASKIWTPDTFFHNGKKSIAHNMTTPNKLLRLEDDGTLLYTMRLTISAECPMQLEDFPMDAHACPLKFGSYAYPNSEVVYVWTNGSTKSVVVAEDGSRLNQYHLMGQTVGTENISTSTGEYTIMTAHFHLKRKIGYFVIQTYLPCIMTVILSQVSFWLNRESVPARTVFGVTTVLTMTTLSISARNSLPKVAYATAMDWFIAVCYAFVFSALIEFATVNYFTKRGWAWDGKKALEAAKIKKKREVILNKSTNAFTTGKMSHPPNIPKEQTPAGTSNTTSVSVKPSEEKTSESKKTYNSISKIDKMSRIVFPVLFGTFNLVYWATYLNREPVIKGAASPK
T2 sequence (P28472 26-473 partner): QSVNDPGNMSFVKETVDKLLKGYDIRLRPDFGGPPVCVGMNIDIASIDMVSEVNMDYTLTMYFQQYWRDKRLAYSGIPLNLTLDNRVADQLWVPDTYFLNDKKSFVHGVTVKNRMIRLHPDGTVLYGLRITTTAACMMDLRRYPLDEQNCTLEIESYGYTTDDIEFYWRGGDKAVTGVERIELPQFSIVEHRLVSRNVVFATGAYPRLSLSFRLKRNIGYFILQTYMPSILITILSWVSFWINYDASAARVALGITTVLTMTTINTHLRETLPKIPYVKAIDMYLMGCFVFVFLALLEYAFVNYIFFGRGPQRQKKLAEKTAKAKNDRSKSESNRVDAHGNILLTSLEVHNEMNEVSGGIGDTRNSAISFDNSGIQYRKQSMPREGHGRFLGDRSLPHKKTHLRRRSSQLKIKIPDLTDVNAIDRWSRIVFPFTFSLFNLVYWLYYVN
T2 sequence (P18507 40-475): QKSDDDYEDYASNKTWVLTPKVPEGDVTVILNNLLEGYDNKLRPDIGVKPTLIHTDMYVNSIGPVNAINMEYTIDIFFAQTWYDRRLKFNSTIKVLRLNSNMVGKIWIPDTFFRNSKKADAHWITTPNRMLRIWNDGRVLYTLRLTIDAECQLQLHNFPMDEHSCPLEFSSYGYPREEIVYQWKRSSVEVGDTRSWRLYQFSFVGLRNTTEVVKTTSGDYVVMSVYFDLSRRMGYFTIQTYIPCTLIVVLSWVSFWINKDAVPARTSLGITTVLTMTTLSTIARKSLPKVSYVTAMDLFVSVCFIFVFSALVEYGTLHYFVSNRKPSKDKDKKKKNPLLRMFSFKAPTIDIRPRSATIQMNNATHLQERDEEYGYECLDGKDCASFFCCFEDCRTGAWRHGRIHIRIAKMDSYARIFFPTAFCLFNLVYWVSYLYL
T1 sequence (P31644 32-462): as the sequence (P31644 32-462) above
T1 sequence (P28472 26-473 partner): as the sequence (P28472 26-473 partner) above
T1 sequence (P18507 40-475): as the sequence (P18507 40-475) above

On to `COCc1ncc(-c2ccc(NC(=O)c3c(-c4ccccc4)noc3C)c(OC)n2)cn1` [Example 125, N-[2-Methoxy-6-[2-(methoxymethyl)pyrimidin-5-yl]-3-pyridyl]-5-methyl-3-phenyl-isoxazole-4-carboxamide], for which the Ki in assay [1] worked out at 2.5 nM. Also, the “α5-GABAAR Relative Efficacy (to DMCM), Qpatch” value (from here on “α5-GABAAR Relative Efficacy”) in assay [2] (Conc 0.3 μM) is −0.84.

Take `COc1ccc(-c2ccc(NC(=O)c3c(-c4ccccc4)noc3C)c(OC)n2)nn1` [Example 128, N-[2-Methoxy-6-(6-methoxypyridazin-3-yl)-3-pyridyl]-5-methyl-3-phenyl-isoxazole-4-carboxamide]: the Ki in assay [1] was 46.7 nM. Further, the “α5-GABAAR Relative Efficacy” value in assay [2] (Conc 10 μM) was −0.19.

As to `COc1nc(-c2cnc(C(=O)N(C)C)nc2)ccc1NC(=O)c1c(-c2ccccc2)noc1C` [Example 130, N-[6-[2-(Dimethylcarbamoyl)pyrimidin-5-yl]-2-methoxy-3-pyridyl]-5-methyl-3-phenyl-isoxazole-4-carboxamide], the inhibitory constant (Ki) in assay [1] came out at 2.3 nM. In assay [2] (Conc 0.3 μM), the “α5-GABAAR Relative Efficacy” value was −0.55.

For `COc1nc(-c2ccn3nc(N(C)C)nc3c2)ccc1NC(=O)c1c(-c2ccccc2)noc1C.Cl` [Example 131, N-[6-[2-(Dimethylamino)-[1,2,4]triazolo[1,5-a]pyridin-7-yl]-2-methoxy-3-pyridyl]-5-methyl-3-phenyl-isoxazole-4-carboxamide hydrochloride], the Ki in assay [1] is 9.8 nM. In addition, the “α5-GABAAR Relative Efficacy” value in assay [2] (Conc 1 μM) was −0.67.

Consider `COc1nc(-c2cncn2C)ccc1NC(=O)c1c(-c2ccccc2)noc1C` [Example 132, N-[2-Methoxy-6-(3-methylimidazol-4-yl)-3-pyridyl]-5-methyl-3-phenyl-isoxazole-4-carboxamide], for which, in assay [1], the Ki was 4 nM. Also, the “α5-GABAAR Relative Efficacy” value in assay [2] (Conc 1 μM) is recorded as −0.52.

In the case of `COc1nc(-c2c[nH]c(=O)c(F)c2)cnc1NC(=O)c1c(-c2ccccc2)noc1C` [Example 133, N-[5-(5-Fluoro-6-oxo-1H-pyridin-3-yl)-3-methoxy-pyrazin-2-yl]-5-methyl-3-phenyl-isoxazole-4-carboxamide], in assay [1], the inhibition constant Ki amounted to 4.1 nM. Further, the “α5-GABAAR Relative Efficacy” value in assay [2] (Conc 1 μM) is listed as −0.75.

For `COc1nc(-c2cnc3cnccn23)ccc1NC(=O)c1c(-c2ccccc2)noc1C` [Example 135, N-(6-(Imidazo[1,2-a]pyrazin-3-yl)-2-methoxypyridin-3-yl)-5-methyl-3-phenylisoxazole-4-carboxamide], in assay [1], the Ki amounted to 1 nM. Further, the “α5-GABAAR Relative Efficacy” value in assay [2] (Conc 0.3 μM) is recorded as −0.85.

Turning to `COc1nc(-c2cnc3ncccn23)ccc1NC(=O)c1c(-c2ccccc2)noc1C` [Example 136, N-(6-(Imidazo[1,2-a]pyrimidin-3-yl)-2-methoxypyridin-3-yl)-5-methyl-3-phenylisoxazole-4-carboxamide], in assay [1], the inhibitory constant (Ki) is 3.3 nM. In addition, in assay [2] (Conc 1 μM), the “α5-GABAAR Relative Efficacy” value is recorded as −0.60.

With `COc1nc(-c2cnc3n2CCNC3)ccc1NC(=O)c1c(-c2ccccc2)noc1C.Cl` [Example 138, N-(2-Methoxy-6-(5,6,7,8-tetrahydroimidazo[1,2-a]pyrazin-3-yl)pyridin-3-yl)-5-methyl-3-phenylisoxazole-4-carboxamide hydrochloride], the Ki in assay [1] stood at 3.2 nM. Also, the “α5-GABAAR Relative Efficacy” value in assay [2] (Conc 1 μM) was −0.62.

As for `COc1nc(-n2cnc(C#N)c2)ccc1NC(=O)c1c(-c2ccccc2)noc1C` [Example 139, N-[6-(4-Cyanoimidazol-1-yl)-2-methoxy-3-pyridyl]-5-methyl-3-phenyl-isoxazole-4-carboxamide], the inhibitory constant (Ki) in assay [1] turned out to be 1.9 nM. Besides, the “α5-GABAAR Relative Efficacy” value in assay [2] (Conc 0.3 μM) is −0.90.

`COc1nc(-n2cnc(C(F)(F)F)c2)ccc1NC(=O)c1c(-c2ccccc2)noc1C` [Example 140, N-[2-Methoxy-6-[4-(trifluoromethyl)imidazol-1-yl]-3-pyridyl]-5-methyl-3-phenyl-isoxazole-4-carboxamide]: in assay [1], the Ki was 5.7 nM. Besides, in assay [2] (Conc 1 μM), the “α5-GABAAR Relative Efficacy” value is recorded as −0.79.

Consider `CCOc1ncc(-c2cnc(NC(=O)c3c(-c4ccccc4)noc3C)c(OC)n2)cn1` [Example 142, N-[5-(2-Ethoxypyrimidin-5-yl)-3-methoxy-pyrazin-2-yl]-5-methyl-3-phenyl-isoxazole-4-carboxamide], for which, in assay [1], the inhibition constant Ki came out at 2.9 nM. Also, in assay [2] (Conc 0.3 μM), the “α5-GABAAR Relative Efficacy” value is given as −0.85.

For the compound `CNc1ncc(-c2cnc(NC(=O)c3c(-c4ccccc4)noc3C)c(OC)n2)cn1` [Example 145, N-[3-Methoxy-5-[2-(methylamino)pyrimidin-5-yl]pyrazin-2-yl]-5-methyl-3-phenyl-isoxazole-4-carboxamide], in assay [1], the Ki was 0.3 nM. Further, the “α5-GABAAR Relative Efficacy” value in assay [2] (Conc 0.1 μM) is given as −1.12.

Consider `COc1nc(-c2ccc(NC(C)=O)nc2)cnc1NC(=O)c1c(-c2ccccc2)noc1C` [Example 147, N-[5-(6-Acetamido-3-pyridyl)-3-methoxy-pyrazin-2-yl]-5-methyl-3-phenyl-isoxazole-4-carboxamide], for which the Ki in assay [1] stood at 0.5 nM. In addition, the “α5-GABAAR Relative Efficacy” value in assay [2] (Conc 0.1 μM) is listed as −0.67.

`COc1nc(-c2ccc(CO)nc2)cnc1NC(=O)c1c(-c2ccccc2)noc1C` [Example 148, N-[5-[6-(Hydroxymethyl)-3-pyridyl]-3-methoxy-pyrazin-2-yl]-5-methyl-3-phenyl-isoxazole-4-carboxamide]: in assay [1], the inhibitory constant (Ki) worked out at 1.2 nM. The “α5-GABAAR Relative Efficacy” value in assay [2] (Conc 0.3 μM) is recorded as −0.80.

In the case of `COc1nc(-c2ccc(=O)n(C)c2)cnc1NC(=O)c1c(-c2ccccc2)noc1C` [Example 149, N-[3-Methoxy-5-(1-methyl-6-oxo-3-pyridyl)pyrazin-2-yl]-5-methyl-3-phenyl-isoxazole-4-carboxamide], the Ki in assay [1] amounted to 5.2 nM. For the same compound, in assay [2] (Conc 1 μM), the “α5-GABAAR Relative Efficacy” value is −0.66.

Turning to `COc1nc(-c2cnc(N)cn2)cnc1NC(=O)c1c(-c2ccccc2)noc1C` [Example 150, N-[5-(5-Aminopyrazin-2-yl)-3-methoxy-pyrazin-2-yl]-5-methyl-3-phenyl-isoxazole-4-carboxamide], the inhibition constant (Ki) in assay [1] came to 5.1 nM. Also, in assay [2] (Conc 1 μM), the “α5-GABAAR Relative Efficacy” value is reported as −0.83.

On to `COc1nc(-n2ccnc2)ccc1NC(=O)c1c(C)nnn1-c1ccccc1` [Example 151, N-(6-(1H-Imidazol-1-yl)-2-methoxypyridin-3-yl)-4-methyl-1-phenyl-1H-1,2,3-triazole-5-carboxamide], for which the Ki in assay [1] worked out at 45.1 nM. Also, the “α5-GABAAR Relative Efficacy” value in assay [2] (Conc 3 μM) was −0.89.

Take `COc1nc(-n2cnc(CN(C)C)c2)ccc1NC(=O)c1c(-c2ccccc2)noc1C` [Example 152, N-[6-[4-[(Dimethylamino)methyl]imidazol-1-yl]-2-methoxy-3-pyridyl]-5-methyl-3-phenyl-isoxazole-4-carboxamide]: the Ki in assay [1] came out at 22.9 nM. Also, the “α5-GABAAR Relative Efficacy” value in assay [2] (Conc 3 μM) is −0.27.

Regarding `COc1nc(-n2cncc2CN(C)C)ccc1NC(=O)c1c(-c2ccccc2)noc1C` [Example 153, N-[6-[5-[(Dimethylamino)methyl]imidazol-1-yl]-2-methoxy-3-pyridyl]-5-methyl-3-phenyl-isoxazole-4-carboxamide], the inhibition constant Ki in assay [1] is 1.7 nM. Moreover, in assay [2] (Conc 0.3 μM), the “α5-GABAAR Relative Efficacy” value was −0.83.

For the compound `COc1nc(-n2ccnc2)ccc1NC(=O)c1c(-c2ccccc2)nnn1C` [Example 154, N-(6-(1H-Imidazol-1-yl)-2-methoxypyridin-3-yl)-1-methyl-4-phenyl-1H-1,2,3-triazole-5-carboxamide], the Ki in assay [1] was found to be 25.3 nM. In addition, the “α5-GABAAR Relative Efficacy” value in assay [2] (Conc 3 μM) is listed as −0.89.

For `COc1nc(-c2cnc3n2CCOC3)cnc1NC(=O)c1c(-c2ccccc2)noc1C` [Example 155, N-[5-(6,8-Dihydro-5H-imidazo[2,1-c][1,4]oxazin-3-yl)-3-methoxy-pyrazin-2-yl]-5-methyl-3-phenyl-isoxazole-4-carboxamide], the Ki in assay [1] came to 2.3 nM. For the same compound, the “α5-GABAAR Relative Efficacy” value in assay [2] (Conc 0.3 μM) is recorded as −0.91.

For the compound `COc1nc(-c2ccc(CO)nc2)ccc1NC(=O)c1c(C)nnn1-c1ccccc1` [Example 160, N-(6′-(Hydroxymethyl)-6-methoxy-[2,3′-bipyridin]-5-yl)-4-methyl-1-phenyl-1H-1,2,3-triazole-5-carboxamide], the Ki in assay [1] stood at 28 nM. Also, in assay [2] (Conc 3 μM), the “α5-GABAAR Relative Efficacy” value is on record as −0.77.

Turning to `COc1nc(-c2cnc(CN(C)C)nc2)ccc1NC(=O)c1c(C)nnn1-c1ccccc1` [Example 161, N-(6-(2-((Dimethylamino)methyl)pyrimidin-5-yl)-2-methoxypyridin-3-yl)-4-methyl-1-phenyl-1H-1,2,3-triazole-5-carboxamide], the Ki in assay [1] stood at 61.5 nM. For the same compound, the “α5-GABAAR Relative Efficacy” value in assay [2] (Conc 10 μM) is given as −0.71.

With `CCOc1ncc(-c2ccc(NC(=O)c3c(C)nnn3-c3ccccc3)c(OC)n2)cn1` [Example 162, N-(6-(2-Ethoxypyrimidin-5-yl)-2-methoxypyridin-3-yl)-4-methyl-1-phenyl-1H-1,2,3-triazole-5-carboxamide], the inhibition constant Ki in assay [1] came out at 33.6 nM. Moreover, the “α5-GABAAR Relative Efficacy” value in assay [2] (Conc 3 μM) is reported as −0.90.

Turning to `COc1nc(-c2cnc(OCCN(C)C)nc2)ccc1NC(=O)c1c(-c2ccccc2)noc1C` [Example 163, N-[6-[2-[2-(Dimethylamino)ethoxy]pyrimidin-5-yl]-2-methoxy-3-pyridyl]-5-methyl-3-phenyl-isoxazole-4-carboxamide], the Ki in assay [1] stood at 4.1 nM. In assay [2] (Conc 1 μM), the “α5-GABAAR Relative Efficacy” value was −1.11.
